In US10118930B2, “Piperidinylpyrazolopyrimidinones and their use” (BAYER PHARMA AKTIENGESELLSCHAFT, priority 2015, dated 2018):
pIC50: −log10 of the molar value. Counter-ions that a name gives are not always drawn.

System: clot lysis (fibrinolysis) in diluted human citrated plasma, tPA-induced
Assay: Plasma-based clot lysis assay (5%)
Type: biochemical
Settings: human citrated platelet-poor plasma 5%, fibrinogen 3 μM, CaCl2 10 mM, tPA 0.2 nM, 37° C., OD at 405 nm
Procedure, shortened: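 Compounds added to 5% platelet-poor citrated human plasma with 3 μM fibrinogen in 20 mM HEPES, 150 mM NaCl, 0.01% Brij, pH 7. Clotting and lysis started with 10 mM CaCl2 and 0.2 nM tPA at 37° C. IC50 derived by comparing time courses with a blank control reaction.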

SMILES	pIC50
O=c1cc(C2CCNCC2)n2ncc(-c3nnc(-c4ccncc4)o3)c2[nH]1 [Example 185, 7-(piperidin-4-yl)-3-[5-(pyridin-4-yl)-1,3,4-oxadiazol-2-yl]pyrazolo[1,5-a]pyrimidin-5 (4H)-one hydrochloride]	7.42
COC[C@@H]1CCCN1C(=O)c1c(C)nn2c(C3CCNCC3)cc(=O)[nH]c12 [Example 398, 3-{[(2S)-2-(methoxymethyl)pyrrolidin-1-yl]carbonyl}-2-methyl-7-(piperidin-4-yl) pyrazolo[1,5-a] pyrimidin-5(4H)-one hydrochloride]	7.47
CC(C)(C)c1nnc(-c2cnn3c(C4CCNCC4)cc(=O)[nH]c23)o1 [Example 165, 3-(5-tert-butyl-1,3,4-oxadiazol-2-yl)-7-(piperidin-4-yl)pyrazolo[1,5-a]pyrimidin-5 (4H)-one hydrochloride]	7.47
Cc1ccccc1-c1noc(-c2cnn3c(C4CCNCC4)cc(=O)[nH]c23)n1 [Example 119, 3-[3-(2-Methylphenyl)-1,2,4-oxadiazol-5-yl]-7-(piperidin-4-yl)pyrazolo[1,5-a]pyrimidin-5 (4H)-one hydrochloride]	7.10
Cc1ccc(Cl)cc1-c1nc(-c2cnn3c(C4CCNCC4)cc(=O)[nH]c23)no1 [Example 230, 3-[5-(5-chloro-2-methylphenyl)-1,2,4-oxadiazol-3-yl]-7-(piperidin-4-yl)pyrazolo[1,5-a]pyrimidin-5(4H)-one hydrochloride]	7.44
O=c1cc(C2CCNCC2)n2nc(-c3ccccc3)c(Br)c2[nH]1 [Example 29, 3-Bromo-2-phenyl-7-(piperidin-4-yl)pyrazolo[1,5-a]pyrimidin-5(4H)-one hydrochloride]	7.70
O=c1cc(C2CCNCC2)n2ncc(-c3nc(C4CCCCC4)cs3)c2[nH]1 [Example 335, 3-(4-cyclohexyl-1,3-thiazol-2-yl)-7-(piperidin-4-yl)pyrazolo[1,5-a]pyrimidin-5(4H)-one hydrochloride]	8.05
Cc1nn2c(C3CCNCC3)cc(=O)[nH]c2c1C(=O)OC(C)(C)C [Example 468, Tert-butyl 2-methyl-5-oxo-7-(piperidin-4-yl)-4,5-dihydropyrazolo[1,5-a]pyrimidine-3-carboxylate hydrochloride]	7.41
O=c1cc(C2CCNCC2)n2ncc(-c3nnc(C4CCC4)o3)c2[nH]1 [Example 294, 3-(5-cyclobutyl-1,3,4-oxadiazol-2-yl)-7-(piperidin-4-yl)pyrazolo[1,5-a]pyrimidin-5 (4H)-one hydrochloride]	7.43
O=c1cc(C2CCNCC2)n2ncc(-c3noc(C4CCCO4)n3)c2[nH]1 (racemic) [Example 389, Rac-7-(piperidin-4-yl)-3-(5-(tetrahydrofuran-2-yl)-1,2,4-oxadiazol-3-yl)pyrazolo[1,5-a]pyrimidin-5(4H)-one hydrochloride]	7.52
O=c1cc(C2CCNCC2)n2ncc(-c3nc(Cc4ccc(F)cc4)no3)c2[nH]1 [Example 224, 3-[3-(4-fluorobenzyl)-1,2,4-oxadiazol-5-yl]-7-(piperidin-4-yl)pyrazolo[1,5-a]pyrimidin-5(4H)-one hydrochloride]	8.01
COc1ccc(C2(c3nc(-c4cnn5c(C6CCNCC6)cc(=O)[nH]c45)no3)CC2)cc1 [Example 245, 3-{5-[1-(4-methoxyphenyl)cyclopropyl]-1,2,4-oxadiazol-3-yl}-7-(piperidin-4-yl)pyrazolo[1,5-a]pyrimidin-5(4H)-one hydrochloride]	7.54
Cn1cncc1-c1nnc(-c2cnn3c(C4CCNCC4)cc(=O)[nH]c23)o1 [Example 168, 3-[5-(1-methyl-1H-imidazol-5-yl)-1,3,4-oxadiazol-2-yl]-7-(piperidin-4-yl)pyrazolo[1,5-a]pyrimidin-5(4H)-one hydrochloride]	7.48
Cc1nn2c(C3CCNCC3)cc(=O)[nH]c2c1C(=O)N1CC2CCCCC2C1 (stereo not shown) [Example 413, 2-methyl-3-(octahydro-2H-isoindol-2-ylcarbonyl)-7-(piperidin-4-yl) pyrazolo[1,5-a] pyrimidin-5(4H)-one hydrochloride]	7.46
O=c1cc(C2CCNCC2)n2ncc(-c3noc(C4CCCC4)n3)c2[nH]1 [Example 385, 3-(5-Cyclopentyl-1,2,4-oxadiazol-3-yl)-7-(piperidin-4-yl)pyrazolo[1,5-a]pyrimidin-5(4H)-one hydrochloride]	7.85
CCN(Cc1ccccc1)C(=O)c1c(C)nn2c(C3CCNCC3)cc(=O)[nH]c12 [Example 423, N-benzyl-N-ethyl-2-methyl-5-oxo-7-(piperidin-4-yl)-4,5-dihydro-pyrazolo[1,5-a] pyrimidine-3-carboxamide hydrochloride]	7.48
Cc1nn2c(C3CCNCC3)cc(=O)[nH]c2c1C(=O)N1CCC(C)CC1 [Example 416, 2-methyl-3-[(4-methyl-piperidin-1-yl)carbonyl]-7-(piperidin-4-yl) pyrazolo[1,5-a] pyrimidin-5(4H)-one hydrochloride]	7.51
CCCOC(=O)c1c(C(F)(F)F)nn2c(C3CCNCC3)cc(=O)[nH]c12 [Example 459, Propyl 5-oxo-7-(piperidin-4-yl)-2-(trifluoromethyl)-4,5-dihydropyrazolo[1,5-a]pyrimidine-3-carboxylate hydrochloride]	7.08
O=c1cc(C2CCNCC2)n2ncc(-c3nc(-c4cccc([N+](=O)[O-])c4)no3)c2[nH]1 [Example 205, 3-[3-(3-nitrophenyl)-1,2,4-oxadiazol-5-yl]-7-(piperidin-4-yl)pyrazolo[1,5-a]pyrimidin-5(4H)-one hydrochloride]	7.46
O=C(Nc1cccc2ccccc12)c1cnn2c(C3CCNCC3)cc(=O)[nH]c12 [Example 75, N-(naphthalen-1-yl)-5-oxo-7-(piperidin-4-yl)-4,5-dihydropyrazolo[1,5-a]pyrimidine-3-carboxamide]	7.40
Cc1nn2c(C3CCNCC3)cc(=O)[nH]c2c1-c1nc(C(F)(F)F)no1 [Example 341, 2-methyl-7-(piperidin-4-yl)-3-[3-(trifluoromethyl)-1,2,4-oxadiazol-5-yl]pyrazolo[1,5-a]pyrimidin-5(4H)-one hydrochloride]	7.47
N#Cc1cnn2c(C3CCNCC3)cc(=O)[nH]c12 [Example 15, 5-Oxo-7-(piperidin-4-yl)-4,5-dihydropyrazolo[1,5-a]pyrimidine-3-carbonitrile]	7.72

Further lines, results first:

pIC50	SMILES
7.59	CC(C)(C)c1cnc(-c2cnn3c(C4CCNCC4)cc(=O)[nH]c23)o1 [Example 332, 3-(5-tert-butyl-1,3-oxazol-2-yl)-7-(piperidin-4-yl)pyrazolo[1,5-a]pyrimidin-5 (4H)-one hydrochloride]
7.62	Cc1nn2c(C3CCNCC3)cc(=O)[nH]c2c1C(=O)NC1CCCC1 [Example 417, N-cyclopentyl-2-methyl-5-oxo-7-(piperidin-4-yl)-4,5-dihydro-pyrazolo[1,5-a] pyrimidine-3-carboxamide hydrochloride]
6.82	CC1(C)CCN(Cc2cnn3c(C4CCNCC4)cc(=O)[nH]c23)C1 [Example 324, 3-[(3,3-dimethylpyrrolidin-1-yl)methyl]-7-(piperidin-4-yl)pyrazolo[1,5-a]pyrimidin-5(4H)-one hydrochloride]
7.57	Cc1nn2c(C3CCNCC3)cc(=O)[nH]c2c1C(=O)OC(C)C [Example 366, Propan-2-yl 2-methyl-5-oxo-7-(piperidin-4-yl)-4,5-dihydropyrazolo[1,5-a]pyrimidine-3-carboxylate hydrochloride]
7.51	CC1CCCN(C(=O)c2cnn3c(C4CCNCC4)cc(=O)[nH]c23)C1C (stereo not shown) [Example 104, 3-[(2,3-dimethylpiperidin-1-yl)carbonyl]-7-(piperidin-4-yl)pyrazolo[1,5-a]pyrimidin-5(4H)-one hydrochloride]
7.70	COc1ccc(C(C)(C)c2nc(-c3cnn4c(C5CCNCC5)cc(=O)[nH]c34)no2)cc1 [Example 242, 3-{5-[2-(4-methoxyphenyl)propan-2-yl]-1,2,4-oxadiazol-3-yl}-7-(piperidin-4-yl)pyrazolo[1,5-a]pyrimidin-5(4H)-one hydrochloride]
6.96	Cc1ccc(-c2noc(-c3cnn4c(C5CCNCC5)cc(=O)[nH]c34)n2)c(C(F)(F)F)c1 [Example 128, 3-{3-[4-Methyl-2-(trifluoromethyl)phenyl]-1,2,4-oxadiazol-5-yl}-7-(piperidin-4-yl)pyrazolo[1,5-a]pyrimidin-5(4H)-one hydrochloride]
7.85	O=c1cc(C2CCNCC2)n2ncc(-c3nnc(Cc4ccccc4Cl)o3)c2[nH]1 [Example 276, 3-[5-(2-chlorobenzyl)-1,3,4-oxadiazol-2-yl]-7-(piperidin-4-yl)pyrazolo[1,5-a]pyrimidin-5(4H)-one hydrochloride]
7.72	CS(=O)(=O)c1ccc(-c2cnn3c(C4CCNCC4)cc(=O)[nH]c23)cc1 [Example 55, 3-[4-(Methylsulfonyl)phenyl]-7-(piperidin-4-yl)pyrazolo[1,5-a]pyrimidin-5(4H)-one hydrochloride]
7.23	O=c1cc(C2CCNCC2)n2ncc(-c3nnc(-c4ccccc4C(F)(F)F)o3)c2[nH]1 [Example 172, 7-(piperidin-4-yl)-3-{5-[2-(trifluoromethyl)phenyl]-1,3,4-oxadiazol-2-yl}pyrazolo[1,5-a]pyrimidin-5(4H)-one hydrochloride]
7.66	O=c1cc(C2CCNCC2)n2ncc(-c3coc(-c4ccccc4)n3)c2[nH]1 [Example 372, 3-(2-phenyl-1,3-oxazol-4-yl)-7-(piperidin-4-yl)pyrazolo[1,5-a]pyrimidin-5(4H)-one hydrochloride]
7.52	O=c1cc(C2CCNCC2)n2ncc(-c3nc(Cc4ccc(Cl)c(Cl)c4)no3)c2[nH]1 [Example 213, 3-[3-(3,4-dichlorobenzyl)-1,2,4-oxadiazol-5-yl]-7-(piperidin-4-yl)pyrazolo[1,5-a]pyrimidin-5 (4H)-one hydrochloride]
